# Measurements reported in patent publication US20180200315A1, “CANNABINOID AND CAFFEINE EMULSIFICATIONS” (priority 2016, published 2018).
# Experiment: Emulsifier experiments with coconut oils and water (Example 2)
# Assay type: physicochemical
# Conditions: tested as emulsifying agents; solid and liquid (MCT) coconut oils
# Description: Several experiments were run using several different emulsifiers and combinations of different coconut oils: solid and liquid (MCT). (Note: liquid MCT is coconut oil that has medium chain triglyceride). Guar gum, lecithin, and cyclodextrin were tested as emulsifying agents and provided good results.
substance,measurement,value
cyclodextrin,emulsification of the oil and water,good results
